Test results from US10266497B2 (ABIDE THERAPEUTICS, INC., priority 2017, dated 2019).

Tests used:
[1] = molecular target: T1, MAGL (Homo sapiens, UniProt Q99685); assay: In vitro competitive activity-based protein profiling, MAGL, human; settings: for inhibition at 1 µM: read-out: MAGL % inh. 1 μM (human); for inhibition at 10 µM: read-out: MAGL % inh. (human) at 10 uM
T1 sequence (Q99685 1-303): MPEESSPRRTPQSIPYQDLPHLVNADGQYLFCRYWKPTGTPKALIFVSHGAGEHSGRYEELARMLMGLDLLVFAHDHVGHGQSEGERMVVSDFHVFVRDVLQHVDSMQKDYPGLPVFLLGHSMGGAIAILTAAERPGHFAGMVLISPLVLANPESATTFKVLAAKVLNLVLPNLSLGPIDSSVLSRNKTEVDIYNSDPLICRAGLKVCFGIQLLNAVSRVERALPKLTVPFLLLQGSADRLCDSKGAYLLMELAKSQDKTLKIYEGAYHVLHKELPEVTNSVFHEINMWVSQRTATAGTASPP

[2] = molecular target: T2, MAGL (Mus musculus, UniProt O35678); assay: In vitro competitive activity-based protein profiling, MAGL, mouse; settings: read-out: MAGL % inh. 1 μM (mouse)
T2 sequence (O35678 1-303): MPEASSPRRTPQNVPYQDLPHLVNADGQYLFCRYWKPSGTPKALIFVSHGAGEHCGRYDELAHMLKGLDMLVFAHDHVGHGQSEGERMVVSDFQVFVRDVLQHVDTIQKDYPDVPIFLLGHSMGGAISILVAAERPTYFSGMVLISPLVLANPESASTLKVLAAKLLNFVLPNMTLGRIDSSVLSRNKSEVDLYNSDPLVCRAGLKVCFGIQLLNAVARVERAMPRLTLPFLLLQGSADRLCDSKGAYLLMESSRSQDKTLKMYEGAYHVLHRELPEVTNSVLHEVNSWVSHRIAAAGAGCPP

COc1cc(-c2ccccc2)ccc1CN1CCN(C(=O)n2ccc(C(=O)O)n2)[C@H](C)C1 [Example 283, (R)-1-(4-((3-methoxy-[1,1′-biphenyl]-4-yl)methyl)-2-methylpiperazine-1-carbonyl)-1H-pyrazole-3-carboxylic acid]
inhibition at 1 µM [1]: > 75% | inhibition at 1 µM [2]: > 75%

NC(=O)c1ccn(C(=O)N2CCC3(CCN(Cc4cccc(C(F)(F)F)c4)C3)CC2)n1 [Example 284, 1-(2-(3-(trifluoromethyl)benzyl)-2,8-diazaspiro[4.5]decane-8-carbonyl)-1H-pyrazole-3-carboxamide]
inhibition at 1 µM [1]: > 75% | inhibition at 1 µM [2]: > 75%

O=C(O)c1ccn(C(=O)N2CCC3(CCN(Cc4cccc(Cl)c4Cl)C3)CC2)n1 [Example 286, 1-(2-(2,3-dichlorobenzyl)-2,8-diazaspiro[4.5]decane-8-carbonyl)-1H-pyrazole-3-carboxylic acid]
inhibition at 1 µM [1]: > 75% | inhibition at 1 µM [2]: > 75%

O=C(O)c1ccn(C(=O)N2CCC3(CCN(Cc4cccc(C(F)(F)F)c4)CC3)C2)n1 [Example 287, 1-(8-(3-(trifluoromethyl)benzyl)-2,8-diazaspiro[4.5]decane-2-carbonyl)-1H-pyrazole-3-carboxylic acid]
inhibition at 1 µM [1]: 25 to 50% | inhibition at 1 µM [2]: 0 to 25%

Cc1c(CO[C@@H]2C[C@@H]3CN(C(=O)n4ccc(C(=O)O)n4)C[C@@H]3C2)cccc1C(F)(F)F [Example 289, 1-(cis-5-((2-methyl-3-(trifluoromethyl)benzyl)oxy)octa-hydrocyclopenta[c]pyrrole-2-carbonyl)-1H-pyrazole-3-carboxylic acid]
inhibition at 1 µM [1]: > 75% | inhibition at 1 µM [2]: > 75%

Cc1cn(C(=O)N2C[C@H]3C[C@H](OCc4cccc(C(F)(F)F)c4)C[C@H]3C2)nc1C(=O)O [Example 290, 4-methyl-1-(trans-5-((3-(trifluoromethyl)benzyl)oxy)octa-hydrocyclopenta[c]pyrrole-2-carbonyl)-1H-pyrazole-3-carboxylic acid]
inhibition at 1 µM [1]: > 75% | inhibition at 1 µM [2]: > 75%

C[C@@H]1CN(Cc2ccc(F)c(Oc3ccccc3)c2)CCN1C(=O)n1ccc(C(=O)O)n1 [Example 294, (R)-1-(4-(4-fluoro-3-phenoxybenzyl)-2-methylpiperazine-1-carbonyl)-1H-pyrazole-3-carboxylic acid]
inhibition at 1 µM [1]: > 75% | inhibition at 1 µM [2]: > 75%

C[C@@H]1CN(Cc2cccc(Oc3ccc(F)cn3)c2)CCN1C(=O)n1ccc(C(=O)O)n1 [Example 295, (R)-1-(4-(3-((5-fluoropyridin-2-yl)oxy)benzyl)-2-methylpiperazine-1-carbonyl)-1H-pyrazole-3-carboxylic acid]
inhibition at 1 µM [1]: 50 to 75% | inhibition at 1 µM [2]: > 75%

O=C(O)c1nn(C(=O)N2C[C@H]3C[C@H](OCc4cc(F)cc(Cl)c4)C[C@H]3C2)cc1Cl [Example 296, 4-chloro-1-(trans-5-((3-chloro-5-fluorobenzyl)oxy)octahydrocyclopenta [c]pyrrole-2-carbonyl)-1H-pyrazole-3-carboxylic acid]
inhibition at 1 µM [1]: > 75% | inhibition at 1 µM [2]: > 75%

O=C(O)c1ccn(C(=O)N2C[C@H]3C[C@H](Oc4cc(Cl)ccc4C(F)(F)F)C[C@H]3C2)n1 [Example 297, 1-(trans-5-(5-chloro-2-(trifluoromethyl)phenoxy)octahydro-cyclopenta[c]pyrrole-2-carbonyl)-1H-pyrazole-3-carboxylic acid]
inhibition at 1 µM [1]: > 75% | inhibition at 1 µM [2]: > 75%

CN(Cc1cccc(-c2ccccc2)c1)[C@H]1C[C@@H]2CN(C(=O)n3ccc(C(=O)O)n3)C[C@@H]2C1 [Example 298, 1-(trans-5-(([1,1′-biphenyl]-3-ylmethyl)(methyl)amino)octahydrocyc-lopenta[c]pyrrole-2-carbonyl)-1H-pyrazole-3-carboxylic acid]
inhibition at 1 µM [1]: > 75% | inhibition at 1 µM [2]: > 75%

C[C@@H]1CN(Cc2ccc(Cl)c(-c3nccs3)c2)CCN1C(=O)n1ccc(C(=O)O)n1 [Example 299, (R)-1-(4-(4-chloro-3-(thiazol-2-yl)benzyl)-2-methylpiperazine-1-carbonyl)-1H-pyrazole-3-carboxylic acid]
inhibition at 1 µM [1]: > 75% | inhibition at 1 µM [2]: > 75%

NC(=O)c1ccc(Cl)cc1CN1CCC2(CCN(C(=O)n3ccc(C(=O)O)n3)CC2)C1 [Example 300, 1-(2-(2-carbamoyl-5-chlorobenzyl)-2,8-diazaspiro[4.5]decane-8-carbonyl)-1H-pyrazole-3-carboxylic acid]
inhibition at 10 µM [1]: > 75% | inhibition at 1 µM [2]: 0 to 25%

O=C(O)c1ccn(C(=O)N2CCC3(CCN(Cc4cccc(-c5ccccn5)c4)C3)CC2)n1 [Example 301, 1-(2-(3-(pyridin-2-yl)benzyl)-2,8-diazaspiro[4.5]decane-8-carbonyl)-1H-pyrazole-3-carboxylic acid]
inhibition at 10 µM [1]: > 75% | inhibition at 1 µM [2]: 0 to 25%

O=C(O)c1ccn(C(=O)N2CCC3(CCN(Cc4cccc(-c5cncnc5)c4)C3)CC2)n1 [Example 302, 1-(2-(3-(pyrimidin-5-yl)benzyl)-2,8-diazaspiro[4.5]decane-8-carbonyl)-1H-pyrazole-3-carboxylic acid]
inhibition at 10 µM [1]: > 75% | inhibition at 1 µM [2]: 0 to 25%

O=C(O)c1nn(C(=O)N2C[C@H]3C[C@H](Oc4cccc(-c5ccccc5)c4)C[C@H]3C2)cc1Cl [Example 304, 1-(trans-5-([1,1′-biphenyl]-3-yloxy)octahydrocyc-lopenta[c]pyrrole-2-carbonyl)-4-chloro-1H-pyrazole-3-carboxylic acid]
inhibition at 1 µM [1]: > 75% | inhibition at 1 µM [2]: > 75%

O=C(O)c1ccn(C(=O)N2CCC3(CCN(Cc4cccc(-c5nccs5)c4)C3)CC2)n1 [Example 305, 1-(2-(3-(thiazol-2-yl)benzyl)-2,8-diazaspiro[4.5]decane-8-carbonyl)-1H-pyrazole-3-carboxylic acid]
inhibition at 1 µM [1]: 50 to 75% | inhibition at 1 µM [2]: 0 to 25%

Cc1cn(C(=O)N2C[C@H]3C[C@H](OCc4cccc(C(F)(F)F)c4C)C[C@H]3C2)nc1C(=O)O [Example 306, 4-methyl-1-(trans-5-((2-methyl-3-(trifluoromethyl)benzyl)oxy)octa-hydrocyclopenta[c]pyrrole-2-carbonyl)-1H-pyrazole-3-carboxylic acid]
inhibition at 1 µM [1]: > 75% | inhibition at 1 µM [2]: > 75%

C[C@@H]1CN(Cc2cccc(Oc3ccc(Cl)cc3)c2)CCN1C(=O)n1ccc(C(N)=O)n1 [Example 310, (R)-1-(4-(3-(4-chlorophenoxy)benzyl)-2-methylpiperazine-1-carbonyl)-1H-pyrazole-3-carboxamide]
inhibition at 1 µM [1]: > 75% | inhibition at 1 µM [2]: > 75%

O=C(O)c1ccn(C(=O)N2CCC3(CC2)CN(Cc2cc(Cl)ccc2C(F)(F)F)C3)n1 [Example 313, 1-(2-(5-chloro-2-(trifluoromethyl)benzyl)-2,7-diazaspiro[3.5]non-ane-7-carbonyl)-1H-pyrazole-3-carboxylic acid]
inhibition at 1 µM [1]: > 75% | inhibition at 1 µM [2]: > 75%

O=C(O)c1nn(C(=O)N2C[C@H]3C[C@H](OCc4cccc(C(F)(F)F)c4)C[C@H]3C2)cc1Cl [Example 314, 4-chloro-1-(trans-5-((3-(trifluoromethyl)benzyl)oxy)octa-hydrocyclopenta[c]pyrrole-2-carbonyl)-1H-pyrazole-3-carboxylic acid]
inhibition at 1 µM [1]: > 75% | inhibition at 1 µM [2]: > 75%

O=C(O)c1ccn(C(=O)N2C[C@H]3CN(Cc4ccc(Cl)c(-c5nccs5)c4)C[C@H]3C2)n1 [Example 315, 1-((3aR,6aS)-5-(4-chloro-3-(thiazol-2-yl)benzyl)octa-hydropyrrolo[3,4-c]pyrrole-2-carbonyl)-1H-pyrazole-3-carboxylic acid]
inhibition at 1 µM [1]: > 75% | inhibition at 1 µM [2]: > 75%

Cc1cn(C(=O)N2CCC3(CCN(Cc4cc(Cl)cc(Cl)c4)C3)CC2)nc1C(=O)O [Example 316, 1-(2-(3,5-dichlorobenzyl)-2,8-diazaspiro[4.5]decane-8-carbonyl)-4-methyl-1H-pyrazole-3-carboxylic acid]
inhibition at 1 µM [1]: > 75% | inhibition at 1 µM [2]: > 75%

O=C(O)c1ccn(C(=O)N2CCC3(CCN(Cc4cc(Cl)ccc4N4CCC4)C3)CC2)n1 [Example 317, 1-(2-(2-(azetidin-1-yl)-5-chlorobenzyl)-2,8-diazaspiro[4.5]decane-8-carbonyl)-1H-pyrazole-3-carboxylic acid]
inhibition at 1 µM [1]: > 75% | inhibition at 1 µM [2]: > 75%

O=C(O)c1ccn(C(=O)N2C[C@H]3C[C@H](Oc4ccc(Cl)c(-c5nccs5)c4)C[C@H]3C2)n1 [Example 318, 1-(trans-5-(4-chloro-3-(thiazol-2-yl)phenoxy)octa-hydrocyclopenta[c]pyrrole-2-carbonyl)-1H-pyrazole-3-carboxylic acid]
inhibition at 1 µM [1]: > 75% | inhibition at 1 µM [2]: > 75%

O=C(O)c1ccn(C(=O)N2CCN(Cc3cc(F)cc(Oc4ccccc4Cl)c3)CC2)n1 [Example 319, 1-(4-(3-(2-chlorophenoxy)-5-fluorobenzyl)piper-azine-1-carbonyl)-1H-pyrazole-3-carboxylic acid]
inhibition at 1 µM [1]: > 75% | inhibition at 1 µM [2]: > 75%
